Active and inactive are the calls of the source.
What was measured:
NCI-H522 = assay: Antiproliferative activity against human NCI-H522 cells assessed as cell growth inhibition at 10 uM by SRB assay; assay type: functional, cell-based
MOLT-4 [1] = assay: Antiproliferative activity against human MOLT-4 cells assessed as cell growth inhibition at 10 uM by SRB assay; assay type: functional, cell-based
Prostatic carcinoma cell = assay: Antiproliferative activity against human prostatic carcinoma cells assessed as cell growth inhibition at 10 uM by SRB assay relative to control; assay type: functional
Hs-578T = assay: Antiproliferative activity against human Hs-578T cells assessed as inhibition of cell growth at 10 uM by SRB assay; assay type: functional, cell-based
CCRF-CEM [2] = assay: Antiproliferative activity against human CCRF-CEM cells assessed as cell growth inhibition at 10 uM by SRB assay; assay type: functional, cell-based
K562 [3] = assay: Antiproliferative activity against human K562 cells assessed as cell growth inhibition at 10 uM by SRB assay; assay type: functional, cell-based
[4] = Antiproliferative activity against human hematologic cancer cells assessed as cell growth inhibition at 10 uM by SRB assay relative to control; assay type: functional
RPMI-8226 [5] = assay: Antiproliferative activity against human RPMI-8226 cells assessed as cell growth inhibition at 10 uM by SRB assay; assay type: functional, cell-based
SF-295 [6] = assay: Antiproliferative activity against human SF-295 cells assessed as cell growth inhibition at 10 uM by SRB assay; assay type: functional, cell-based
EKVX = assay: Antiproliferative activity against human EKVX cells assessed as cell growth inhibition at 10 uM by SRB assay; assay type: functional
UO-31 = assay: Antiproliferative activity against human UO-31 cells assessed as inhibition of cell growth at 10 uM by SRB assay relative to control; assay type: functional
SK-MEL-2 = assay: Antiproliferative activity against human SK-MEL-2 cells assessed as cell growth inhibition at 10 uM by SRB assay relative to control; assay type: functional; settings: Homo sapiens, SK-MEL-2, dose 10 µM
SR [7] = assay: Antiproliferative activity against human SR cells assessed as cell growth inhibition at 10 uM by SRB assay; assay type: functional, cell-based
T47D = assay: Antiproliferative activity against estrogen receptor positive human T47D cells assessed as inhibition of cell growth at 10 uM by SRB assay relative to control; assay type: functional
HL-60 [8] = assay: Antiproliferative activity against human HL-60 cells assessed as cell growth inhibition at 10 uM by SRB assay; assay type: functional, cell-based
HOP-92 = assay: Antiproliferative activity against human HOP-92 cells assessed as cell growth inhibition at 10 uM by SRB assay; assay type: functional, cell-based
NCI-H23 = assay: Antiproliferative activity against human NCI-H23 cells assessed as cell growth inhibition at 10 uM by SRB assay; assay type: functional
[9] = Antiproliferative activity against human colon cancer cells assessed as cell growth inhibition at 10 uM by SRB assay relative to control; assay type: functional; settings: Colon carcinoma cell
NCI-H226 = assay: Antiproliferative activity against human NCI-H226 cells assessed as cell growth inhibition at 10 uM by SRB assay; assay type: functional
K562 [10] = assay: Antiproliferative activity against human K562 cells assessed as cell growth inhibition at 10 uM by SRB assay relative to control; assay type: functional
MOLT-4 [11] = assay: Antiproliferative activity against human MOLT-4 cells assessed as cell growth inhibition at 10 uM by SRB assay relative to control; assay type: functional
CCRF-CEM [12] = assay: Antiproliferative activity against human CCRF-CEM cells assessed as cell growth inhibition at 10 uM by SRB assay relative to control; assay type: functional
SR [13] = assay: Antiproliferative activity against human SR cells assessed as cell growth inhibition at 10 uM by SRB assay relative to control; assay type: functional
HL-60 [14] = assay: Antiproliferative activity against human HL-60 cells assessed as cell growth inhibition at 10 uM by SRB assay relative to control; assay type: functional
RPMI-8226 [15] = assay: Antiproliferative activity against human RPMI-8226 cells assessed as cell growth inhibition at 10 uM by SRB assay relative to control; assay type: functional
U-251 = assay: Antiproliferative activity against human U-251 cells assessed as cell growth inhibition at 10 uM by SRB assay; assay type: functional, cell-based
SF-539 = assay: Antiproliferative activity against human SF-539 cells assessed as cell growth inhibition at 10 uM by SRB assay; assay type: functional, cell-based
SF-268 = assay: Antiproliferative activity against human SF-268 cells assessed as cell growth inhibition at 10 uM by SRB assay; assay type: functional, cell-based
SNB-19 = assay: Antiproliferative activity against human SNB-19 cells assessed as cell growth inhibition at 10 uM by SRB assay; assay type: functional, cell-based
SNB-75 [16] = assay: Antiproliferative activity against human SNB-75 cells assessed as cell growth inhibition at 10 uM by SRB assay; assay type: functional, cell-based
RXF 393 = assay: Antiproliferative activity against human RXF 393 cells assessed as inhibition of cell growth at 10 uM by SRB assay relative to control; assay type: functional
NCI-H322M = assay: Antiproliferative activity against human NCI-H322M cells assessed as cell growth inhibition at 10 uM by SRB assay; assay type: functional, cell-based
HOP-62 = assay: Antiproliferative activity against human HOP-62 cells assessed as cell growth inhibition at 10 uM by SRB assay; assay type: functional, cell-based
NCI-H460 = assay: Antiproliferative activity against human NCI-H460 cells assessed as cell growth inhibition at 10 uM by SRB assay; assay type: functional, cell-based
A549 = assay: Antiproliferative activity against human A549 cells assessed as cell growth inhibition at 10 uM by SRB assay; assay type: functional, cell-based
786-0 = assay: Antiproliferative activity against human 786-0 cells assessed as inhibition of cell growth at 10 uM by SRB assay relative to control; assay type: functional
UACC-62 = assay: Antiproliferative activity against human UACC-62 cells assessed as cell growth inhibition at 10 uM by SRB assay relative to control; assay type: functional
UACC-257 = assay: Antiproliferative activity against human UACC-257 cells assessed as cell growth inhibition at 10 uM by SRB assay relative to control; assay type: functional
SF-295 [17] = assay: Antiproliferative activity against human SF-295 cells assessed as cell growth inhibition at 10 uM by SRB assay relative to control; assay type: functional
SNB-75 [18] = assay: Antiproliferative activity against human SNB-75 cells assessed as cell growth inhibition at 10 uM by SRB assay relative to control; assay type: functional

COc1cc2oc(-c3cccc(NC(=O)c4cccc(Br)c4)c3)cc(=O)c2c(OC)c1OC
active: inhibition (NCI-H522) | inhibition (MOLT-4 [1]) | inhibition (Hs-578T) | inhibition (CCRF-CEM [2]) | inhibition (K562 [3]) | inhibition (RPMI-8226 [5]) | inhibition (SF-295 [6]) | inhibition (UO-31) | inhibition (SR [7]) | inhibition (HL-60 [8]) | inhibition (HOP-92)
≤ 46%: inhibition at 10 µM (SK-MEL-2)
> 50%: inhibition at 10 µM (Prostatic carcinoma cell) | inhibition at 10 µM [4] | inhibition at 10 µM [9]
72.3%: inhibition at 10 µM (T47D)
< 50%: inhibition at 10 µM (EKVX) | inhibition at 10 µM (NCI-H23) | inhibition at 10 µM (NCI-H226)

COc1cc2oc(-c3ccc(NC(=O)c4ccc(C(F)(F)F)cc4)cc3)cc(=O)c2c(OC)c1OC
< 50%: inhibition at 10 µM (EKVX) | inhibition at 10 µM (NCI-H23) | inhibition at 10 µM (NCI-H226)
≤ 42.6%: inhibition at 10 µM (K562 [10]) | inhibition at 10 µM (MOLT-4 [11]) | inhibition at 10 µM (CCRF-CEM [12]) | inhibition at 10 µM (SR [13]) | inhibition at 10 µM (HL-60 [14]) | inhibition at 10 µM (RPMI-8226 [15])
active: inhibition (NCI-H522) | inhibition (Hs-578T) | inhibition (SF-295 [6]) | inhibition (UO-31) | inhibition (HOP-92)

COc1cc2oc(-c3ccc(NC(=O)c4cccc(Br)c4)cc3)cc(=O)c2c(O)c1OC
82.6%: inhibition at 10 µM (RPMI-8226 [15])
inactive: inhibition (U-251) | inhibition (SF-295 [6]) | inhibition (SF-539) | inhibition (SF-268) | inhibition (SNB-19) | inhibition (SNB-75 [16])

COc1cc2oc(-c3cccc(C(=O)Nc4ccc(Br)cc4)c3)cc(=O)c2c(OC)c1OC
active: inhibition (NCI-H522) | inhibition (MOLT-4 [1]) | inhibition (CCRF-CEM [2]) | inhibition (K562 [3]) | inhibition (RXF 393) | inhibition (RPMI-8226 [5]) | inhibition (EKVX) | inhibition (NCI-H322M) | inhibition (SR [7]) | inhibition (HL-60 [8]) | inhibition (HOP-62) | inhibition (NCI-H460) | inhibition (HOP-92) | inhibition (NCI-H23) | inhibition (A549) | inhibition (NCI-H226)

CNC(=O)c1cc(Oc2ccc(NC(=O)Nc3ccc(Cl)c(C(F)(F)F)c3)cc2)ccn1 [SORAFENIB]
84.5%: inhibition at 10 µM (786-0)

COc1cc2oc(-c3cccc(NC(=O)c4ccc(F)cc4)c3)cc(=O)c2c(OC)c1OC
active: inhibition (NCI-H522) | inhibition (MOLT-4 [1]) | inhibition (Hs-578T) | inhibition (CCRF-CEM [2]) | inhibition (K562 [3]) | inhibition (RPMI-8226 [5]) | inhibition (SF-295 [6]) | inhibition (UO-31) | inhibition (SR [7]) | inhibition (HL-60 [8]) | inhibition (HOP-92)
51.3%: inhibition at 10 µM (T47D)
≤ 46%: inhibition at 10 µM (SK-MEL-2)
< 50%: inhibition at 10 µM (EKVX) | inhibition at 10 µM (NCI-H23) | inhibition at 10 µM (NCI-H226)

COc1cc2oc(-c3cccc(NC(=O)c4ccc(C)cc4)c3)cc(=O)c2c(OC)c1OC
active: inhibition (NCI-H522) | inhibition (MOLT-4 [1]) | inhibition (Hs-578T) | inhibition (CCRF-CEM [2]) | inhibition (K562 [3]) | inhibition (RPMI-8226 [5]) | inhibition (SF-295 [6]) | inhibition (UO-31) | inhibition (SR [7]) | inhibition (HL-60 [8]) | inhibition (HOP-92)
< 50%: inhibition at 10 µM (EKVX) | inhibition at 10 µM (NCI-H23) | inhibition at 10 µM (NCI-H226)
50.8%: inhibition at 10 µM (UACC-62)
56.1%: inhibition at 10 µM (UACC-257)
≤ 46%: inhibition at 10 µM (SK-MEL-2)

Cn1nnc2c(C(N)=O)ncn2c1=O [TEMOZOLOMIDE]
29.8%: inhibition at 10 µM (SF-295 [17])
40.8%: inhibition at 10 µM (SNB-75 [18])

COc1cc2oc(-c3ccc(NC(=O)c4ccc(C)cc4)cc3)cc(=O)c2c(OC)c1OC
≤ 46%: inhibition at 10 µM (SK-MEL-2)
active: inhibition (NCI-H522) | inhibition (Hs-578T) | inhibition (SF-295 [6]) | inhibition (UO-31) | inhibition (HOP-92)
< 50%: inhibition at 10 µM (EKVX) | inhibition at 10 µM (NCI-H23) | inhibition at 10 µM (NCI-H226)
≤ 42.6%: inhibition at 10 µM (K562 [10]) | inhibition at 10 µM (MOLT-4 [11]) | inhibition at 10 µM (CCRF-CEM [12]) | inhibition at 10 µM (SR [13]) | inhibition at 10 µM (HL-60 [14]) | inhibition at 10 µM (RPMI-8226 [15])

COc1cc2oc(-c3ccc(NC(=O)c4ccc(Cl)cc4)cc3)cc(=O)c2c(OC)c1OC
≤ 42.6%: inhibition at 10 µM (K562 [10]) | inhibition at 10 µM (MOLT-4 [11]) | inhibition at 10 µM (CCRF-CEM [12]) | inhibition at 10 µM (SR [13]) | inhibition at 10 µM (HL-60 [14]) | inhibition at 10 µM (RPMI-8226 [15])
< 50%: inhibition at 10 µM (EKVX) | inhibition at 10 µM (NCI-H23) | inhibition at 10 µM (NCI-H226)
active: inhibition (NCI-H522) | inhibition (Hs-578T) | inhibition (SF-295 [6]) | inhibition (UO-31) | inhibition (HOP-92)

COc1cc2oc(-c3ccc(NC(=O)c4ccc(F)cc4)cc3)cc(=O)c2c(OC)c1OC
< 50%: inhibition at 10 µM (EKVX) | inhibition at 10 µM (NCI-H23) | inhibition at 10 µM (NCI-H226)
active: inhibition (NCI-H522) | inhibition (Hs-578T) | inhibition (SF-295 [6]) | inhibition (UO-31) | inhibition (HOP-92)
≤ 42.6%: inhibition at 10 µM (K562 [10]) | inhibition at 10 µM (MOLT-4 [11]) | inhibition at 10 µM (CCRF-CEM [12]) | inhibition at 10 µM (SR [13]) | inhibition at 10 µM (HL-60 [14]) | inhibition at 10 µM (RPMI-8226 [15])

— ChEMBL document CHEMBL5260845, “Flavone-based arylamides as potential anticancers: Design, synthesis and in vitro cell-based/cell-free evaluations” (2020)
